In PMC11862924, “Phenylpyrazoles as Inhibitors of the m^6A RNA-Binding Protein YTHDF2” (JACS Au, 2025):
“Also recorded” adds a separate entry of the source.

How the values were obtained:
[1] = target: T1, YTHDC1 (residues 345-509) (Homo sapiens, UniProt Q96MU7); experiment: FP assay with YTH domain of YTHDC1; assay type: binding; details: 2.0 µM YTHDC1
T1 construct: YTHDC1 (residues 345–509); made in house; host or cells: Escherichia coli BL21(DE3); plasmid from the Zhou lab (Boston College)
Experimental: (§1) The FP assay was performed in 384-well black plates (Corning no. 4514) with a total reaction volume of 15 μL. The final concentrations of protein (YTHDF2) and RNA were […], respectively, in a buffer containing 20 mM HEPES/KOH pH 7.5, 50 mM NaCl, 0.005% Tween 20, and 1 mM GSH (DTT). Compounds were incubated with protein, added FAM-m^6A RNA probe ([…](m6)ACUGUG) (purchased from IDT), and incubated at 4 °C for 30 min. The fluorescence polarization was measured using a plate reader (TECAN Spark) under an excitation wavelength of 485 nm and an emission wavelength of 535 nm with a bandwidth of 20 nm. […] The data were determined using GraphPad Prism 9.
Figure S10. The FP assay of YTHDC1 binding to the m6A RNA substrate. (A) The purification of YTHDC1 (residues 345-509), molecular weight: 19.9 kDa. (B) The anisotropy values using different concentrations of YTHDC1 with the m6A RNA probe (4 nM), which was used to decide the appropriate […] concentration for the FP (2.0 µM of YTHDC1, Z-factor: 0.54). (C) CK- […]
(§2) (1 picture or pasted object on this page, not shown here)

[2] = MTT cytotoxicity assay, HCT116; assay type: cell-based; details: human, HCT116 cells, triplicates, read-out: Cytotoxicity against cancer cells (IC50), HCT116
Experimental: JAR, K562, and HCT116 cells were seeded in 96-well plates (3500 cells/well) and incubated for 8 h. The medium with different concentrations of compounds (100, 33.3, 11.1, 3.7, 1.2, and 0.4 μM) was added to the 96-well plates. Data were normalized to the medium with 0.1% DMSO. After incubation for 72 h, MTT solution (5 mg/mL, 20 μL) was added per well in a dark environment and incubated for 4 h. After the medium was discarded, DMSO (150 μL) was added per well, and the absorbance was measured at 492 nm by a plate reader (TECAN Spark).

[3] = target: T2, YTHDC2 (residues 1285-1424) (Homo sapiens, UniProt Q9H6S0); experiment: FP assay with YTH domain of YTHDC2; assay type: binding; details: 5.0 µM YTHDC2
T2 construct: YTHDC2 (residues 1285–1424); made in house; host or cells: Escherichia coli BL21(DE3); plasmid from the Zhou lab (Boston College)
T2 sequence (Q9H6S0 1285-1424): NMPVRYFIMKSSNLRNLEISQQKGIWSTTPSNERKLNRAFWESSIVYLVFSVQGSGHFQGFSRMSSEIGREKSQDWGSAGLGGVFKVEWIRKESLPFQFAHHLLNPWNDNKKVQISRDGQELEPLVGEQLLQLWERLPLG
Experimental: as §1
Figure S11. The FP assay of YTHDC2 binding to the m6A RNA substrate. (A)The purification of YTHDC2 (residues 1285-1424), molecular weight: 17.4 kDa. (B) The anisotropy values using different concentrations of YTHDC2 with the m6A RNA probe (4 nM), which was used to decide the appropriate YTHDC2 concentration for the FP (5.0 µM of YTHDC2, Z-factor: 0.83). (C) The […]
as §2

YTHDC1 = target: T3, YTHDC1 (Homo sapiens, UniProt Q96MU7); experiment: EMSA with YTHDC1; assay type: binding; details: m6A RNA 20 nM
T3 construct: YTHDC1 (residues 345–509); made in house; host or cells: Escherichia coli BL21(DE3); plasmid from the Zhou lab (Boston College)
Experimental: Compounds with different concentrations (3.1–100 μM) were incubated with 250 nM YTH-domain and 20 nM FAM-17mer-RNA in a buffer containing 20 mM HEPES, pH 8.2, 50 mM NaCl, 0.05% Triton X-100, and 5% v/v glycerol for 20 min at 4 °C. The samples were subjected to 12% native polyacrylamide gel and run at 120 V for 90 min at 4 °C using 0.5× TBE buffer. Gel imaging was performed in ChemiDoc MP (Bio-Rad), and Cy2/Alexa488 fluorescence was detected with a 1-min exposure time. Quantification of the gel image was performed by ImageJ.
Figure S14. The EMSA of YTHDC1 binding to the m6A RNA substrate. (A) The YTHDC1–RNA
complex formation in EMSA using m6A RNA (20 nM) and different concentrations of YTHDC1.
as §2

[4] = target: T4, YTHDF3 (residues 391-585) (Homo sapiens, UniProt Q7Z739); experiment: FP assay with YTH domain of YTHDF3; assay type: binding; details: 2.0 µM YTHDF3
T4 construct: YTHDF3 (residues 391–585); made in house; host or cells: Escherichia coli BL21(DE3); plasmid from the Zhou lab (Boston College)
T4 sequence (Q7Z739 391-585): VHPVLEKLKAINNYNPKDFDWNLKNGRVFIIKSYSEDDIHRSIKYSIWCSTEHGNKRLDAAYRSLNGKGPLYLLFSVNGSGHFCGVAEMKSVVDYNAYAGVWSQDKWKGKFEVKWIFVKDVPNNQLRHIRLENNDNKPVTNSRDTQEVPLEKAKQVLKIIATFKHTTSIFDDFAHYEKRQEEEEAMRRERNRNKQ
Experimental: as §1
Figure S9. The FP assay of YTHDF3 binding to the m6A RNA substrate. (A) The purification of YTHDF3 (residues 391-585), molecular weight: 24.1 kDa. (B) The anisotropy values using different concentrations of YTHDF3 with the m6A RNA probe (4 nM), which was used to decide the appropriate […] concentration for the FP (2.0 µM of YTHDF3, Z-factor: 0.55). (C) The […]
as §2

[5] = target: T5, YTHDF2 (residues 383–553) (Homo sapiens, UniProt Q9Y5A9); experiment: Fluorescence polarization (FP) assay, YTHDF2–m6A RNA interaction; assay type: binding; details: for inhibition at 100 µM / inhibition at 100 μM in the FP assay: 100 μM compound, YTHDF2 (residues 383–553, 20 nM), FAM-labeled m6A RNA probe 5 nM, average ± SD; for inhibitory IC50 in FP (in words): YTHDF2–m6A RNA interaction, Figure S2
T5 construct: A YTHDF2 YTH domain construct (residues 383–553) was subcloned to a pOPIN plasmid; made in house; host or cells: Escherichia coli BL21(DE3)
T5 sequence (Q9Y5A9 383-553): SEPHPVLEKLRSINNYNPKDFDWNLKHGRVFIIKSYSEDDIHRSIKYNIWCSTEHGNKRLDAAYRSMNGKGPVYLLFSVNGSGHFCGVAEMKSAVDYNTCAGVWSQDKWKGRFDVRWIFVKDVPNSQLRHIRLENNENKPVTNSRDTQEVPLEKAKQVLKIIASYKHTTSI
Experimental: as §1

Row | Structure (SMILES) | inhibitory activity against YTHDC1 in FP (in words) [1] | IC50 at 72 h [2] [µM] | inhibitory activity against YTHDC2 in FP (in words) [3] | inhibition of m6A RNA binding to YTHDC1 in EMSA (in words) (YTHDC1) | inhibitory activity against YTHDF3 in FP (in words) [4] | inhibition at 100 µM ([3]; read-out: inhibition of YTHDC2 at 100 μM in FP, 100 μM compound) [%] | inhibition at 100 µM [5] [%] | inhibition at 100 μM in the FP assay [5] [%] | inhibitory IC50 in FP (in words) [5] | inhibition at 100 µM ([4]; read-out: inhibition of YTHDF3 at 100 μM in FP, 100 μM compound) [%]
1 | O=C(O)c1ccc(-n2cc(C(=O)c3c(O)ccc4ccccc34)cn2)cc1 [CK-75] | did not show detectable inhibitory activity; also recorded: inactive | 33.3 | inactive | did not show detectable inhibitory activity; also recorded: did not show detectable inhibition | inactive | – | – | – | – | –
2 | O=C(O)c1ccc(-n2cc(C(=O)c3cc(Cl)cc(Cl)c3O)cn2)cc1 [CK-61] | did not show detectable inhibitory activity | > 50 | – | did not show detectable inhibitory activity; also recorded: no activity | – | 36.1 | > 70 | 81.4 ± 10.7 | low double-digit micromolar | 12.4
3 | Cc1cc(O)c(C(=O)c2cnn(-c3ccc(C(=O)O)cc3)c2)cc1Cl [CK-79] | did not show detectable inhibitory activity; also recorded: inactive | 33.6 ± 14.7 | inactive | did not show detectable inhibitory activity; also recorded: did not show detectable inhibition | – | – | > 70 | 70.3 ± 5.1 | low double-digit micromolar | –
